Test results reported in US7671045B2, “17-phosphorous steroid derivatives useful as progesterone receptor modulators” (Janssen Pharmaceutica N.V., priority 2006, dated 2010).
Where two headings read alike, the source gives them in different places.

Legend:
[1] = system: T47D human breast cancer cells; assay: Alkaline phosphatase assay in human breast cancer cell line T47D; assay type: cell-based
Protocol: Alkaline Phosphatase Assay in Human Breast Cancer Cell Line T47D
T47D human breast cancer cells were grown in RPMI medium without phenol red (Invitrogen) containing 10% (v/v) heat-inactivated fetal bovine serum (FBS; Hyclone), 1% (v/v) penicillin-streptomycin (Invitrogen), 1% (w/v) glutamine (Invitrogen), and […] insulin (Sigma). Incubation conditions were 37° C. in a humidified 5% (v/v) carbon dioxide environment.
The cells were plated in 96-well tissue culture plates at 10,000 cells per well in assay medium [RPMI medium without phenol red (Invitrogen) containing 5% (v/v) charcoal-treated FBS (Hyclone) and 1% (v/v) penicillin-streptomycin (Invitrogen)]. Two days later, the medium was decanted and test compound or control were added at a final concentration of 0.1% (v/v) dimethyl sulfoxide in fresh assay medium. Twenty-four hours later, an alkaline phosphatase assay was performed using a SEAP kit (BD Biosciences Clontech, Palo Alto, Calif.). Briefly, the medium was decanted and the cells were fixed for 30 minutes at room temperature with 5% (v/v) formalin (Sigma). The cells were washed once with room temperature Hank's buffered saline solution (Invitrogen). Equal volumes (0.05 mL) of 1× Dilution Buffer, Assay Buffer and 1:20 substrate/enhancer mixture were then added. After 1 hour incubation at room temperature in the dark, the lysate was transferred to a white 96-well plate (Dynex) and luminescence was read using a LuminoSkan Ascent (Thermo Electron, Woburn, Mass.).

[2] = system: A549 Human lung carcinoma cells; assay: Transient transfection and Steady Glo luciferase assay in A549 cells with dexamethasone challenge; assay type: cell-based
Protocol: Transient Transfection and Steady Glo Luciferase Assay
A549 Human lung carcinoma cells were grown in F-12K Nutrient Mixture containing 10% (v/v) fetal bovine serum (FBS; Invitrogen), 2 mM glutamine and 0.15% […] (Invitrogen)
A549 cells were split 1 to 3 in 175 cm tissue culture flask. The cells were incubated at 37° C. in CO2 incubator until the cells were 95% confluent (typically 24-30 hours).
The following solutions were prepared in sterile tubes: (a) Solution A: 1.5 μg/ml of DNA in 8.5 ml OPTI-MEM I Reduced Serum Medium. (GIBCO cat# 31985) and (b) Solution B: 6 μl/ml of DMRIE-C Reagent into […] OPTI-MEM I. The two solutions were combined and mixed gently, then incubated at room temperature for 40 minutes.
The A549 cells prepared above were washed with […] of OPTI-MEM I. The medium was removed and 17 ml of the lipid-DNA complex solution was overlayed onto cells. The cells ere then incubated for 16 h at 37° C. in CO2 incubator. The DNA-containing medium was removed and 30 ml of growth medium was added. (5% Charcoal treated FBS) After 5-6 h, the cells were seeded in a 96 well plate and the cells incubated overnight at 37° C. in CO2 incubator.
To each well was then added 5 μl of test compounds and the cells incubated at 37° C. for 10 min. 5 μL of dexamathasone (CAS [50-02-2]), a glucocorticoid agonist, solution was then added to each well for challenger and the cells incubated at 37° C. in CO2 incubator for 24 h. 100 μl of Luc-assay buffer was then added into each cell well and the cells incubated for 30 min at room temperature. A 150 μL sample from each well was then transferred into a DYNEX Microlitel plate and read on Top-counter.

[3] = T47D, 24 h, read-out: T47D IC50 (nM)
[4] = A549, 24 h, read-out: A549 IC50 (nM)
[5] = T47D cells, alkaline phosphatase readout, 24 h with test compound, read-out: T47D IC50
[6] = transfected A549 cells, luciferase readout, challenged with dexamethasone (glucocorticoid agonist), 24 h, read-out: A549 IC50

Structure (SMILES) | IC50 [1, 3] | IC50 [2, 4] | IC50 [1, 5] | IC50 [2, 6]
COP(=O)(OC)c1ccc([C@H]2C[C@]3(C)C(=O)CC[C@H]3[C@@H]3CCC4=CC(=O)CCC4=C32)cc1 [Compound 15] | 8.8 nM | > 3000 nM |  | 
C=C1CCO[C@]12CC[C@H]1[C@@H]3CCC4=CC(=O)CCC4=C3[C@@H](c3ccc(P(=O)(c4ccccc4)c4ccccc4)cc3)C[C@@]12C [Compound 36, 19,24-Dinorchola-4,9,20-trien-3-one, 17,23-epoxy-11-[4-(diphenyl-phosphinoyl)-phenyl]-, (11β,17α)-(9Cl)] |  |  | 45 nM | 163 nM
C=CC[C@]1(O)CC[C@H]2[C@@H]3CCC4=CC(=O)CCC4=C3[C@@H](c3ccc(P(=O)(OCC)OCC)cc3)C[C@@]21C [Compound 13] | 170 nM | 30.2 nM |  | 
CCOP(=O)(OCC)c1ccc([C@H]2C[C@]3(C)C(=O)CC[C@H]3[C@@H]3CCC4=CC(=O)CCC4=C32)cc1 [Compound 1] | > 1000 nM | 254 nM |  | 
CN(C)c1ccc([C@H]2C[C@@]3(C)[C@@H](CC[C@@]3(O)C#CP(=O)(N(C)C)N(C)C)[C@@H]3CCC4=CC(=O)CCC4=C32)cc1 [Compound 106] |  |  | 7.53 nM | 121 nM
C[C@]12C[C@H](c3ccc(P(=O)(c4ccccc4)c4ccccc4)cc3)C3=C4CCC(=O)C=C4CC[C@H]3[C@@H]1CC[C@@]2(O)C#Cc1ccccc1 [Compound 30] |  |  | 275 nM | 93 nM
C=CC[C@]1(O)CC[C@H]2[C@@H]3CCC4=CC(=O)CCC4=C3[C@@H](c3ccc(P(C)(C)=O)cc3)C[C@@]21C [Compound 9] |  |  | 205 nM | > 1000 nM
C[C@]12C[C@H](c3ccc(P(=O)(Oc4ccccc4)Oc4ccccc4)cc3)C3=C4CCC(=O)C=C4CC[C@H]3[C@@H]1CCC2=O [Compound 33] |  |  | > 1000 nM | 217 nM
C=C1CCO[C@]12CC[C@H]1[C@@H]3CCC4=CC(=O)CCC4=C3[C@@H](c3ccc(P(C)(=O)O)cc3)C[C@@]12C [Compound 22, 19,24-Dinorchola-4,9,20-trien-3-one, 1723-epoxy-11-[4-(hydroxy-methyl-phosphinoyl)phenyl]-(11β,17α)-(9Cl)] |  |  | > 1000 nM | > 3000 nM
C[C@]12C[C@H](c3ccc(P(=O)(OCC(F)(F)F)OCC(F)(F)F)cc3)C3=C4CCC(=O)C=C4CC[C@H]3[C@@H]1CCC2=O [Compound 32] | > 1000 nM | 217 nM |  | 
C=C1CCO[C@]12CC[C@H]1[C@@H]3CCC4=CC(=O)CCC4=C3[C@@H](c3ccc(P(=O)(Oc4ccccc4)Oc4ccccc4)cc3)C[C@@]12C [Compound 37] |  |  | 3.3 nM | 34.3 nM
C=C(C)[C@]1(O)CC[C@H]2[C@@H]3CCC4=CC(=O)CCC4=C3[C@@H](c3ccc(P(C)(C)=O)cc3)C[C@@]21C [Compound 10] |  |  | 18.3 nM | > 3000 nM
CN(C)c1ccc([C@H]2C[C@@]3(C)[C@@H](CC[C@@]3(O)C#CP(=O)(N3CCOC3=O)N3OCCC3=O)[C@@H]3CCC4=CC(=O)CCC4=C32)cc1 (stereo partly shown) [Compound 104] |  |  | 7.25 nM | 64 nM
CCOP(=O)(C#C[C@]1(O)CC[C@H]2[C@@H]3CCC4=CC(=O)CCC4=C3[C@@H](c3ccc(SC)cc3)C[C@@]21C)OCC [Compound 107] | 4.75 nM | 454 nM |  | 
C[C@]12C[C@H](c3ccc(P(C)(C)=O)cc3)C3=C4CCC(=O)C=C4CC[C@H]3[C@@H]1CC[C@@]2(O)C(F)(F)C(F)(F)F [Compound 7] |  |  | 8.4 nM | 624 nM
CCOP(=O)(OCC)c1ccc([C@H]2C[C@@]3(C)[C@@H](CC[C@@]3(O)C#Cc3ccccc3)[C@@H]3CCC4=CC(=O)CCC4=C32)cc1 [Compound 25] | 38.2 nM | 83.8 nM |  | 
C=C1CCO[C@]12CC[C@H]1[C@@H]3CCC4=CC(=O)CCC4=C3[C@@H](c3ccc(P(=O)(OCC(F)(F)F)OCC(F)(F)F)cc3)C[C@@]12C [Compound 38, 19,24-Dinorchola-4,9,20-trien-3-one, 17,23-epoxy-11-[4-[Bis-(2,2,2-trifluoro-ethoxy)-phosphoryl]-phenyl]-, (11β,17α)-(9Cl)] |  |  | 29.5 nM | 141 nM

Structure (SMILES) | IC50 [1, 3] | IC50 [2, 4] | IC50 [1, 5] | IC50 [2, 6]
C/C=C/C[C@]1(O)CC[C@H]2[C@@H]3CCC4=CC(=O)CCC4=C3[C@@H](c3ccc(P(=O)(OCC)OCC)cc3)C[C@@]21C [Compound 29] | 160 nM | 225 nM |  | 
COP(=O)(OC)c1ccc([C@H]2C[C@@]3(C)[C@@H](CC[C@@]3(O)C#Cc3ccccc3)[C@@H]3CCC4=CC(=O)CCC4=C32)cc1 [Compound 31] | 7.47 nM | 130 nM |  | 
CCOP(=O)(OCC)c1ccc([C@H]2C[C@@]3(C)[C@@H](CC[C@@]3(O)C(F)(F)C(F)(F)F)[C@@H]3CCC4=CC(=O)CCC4=C32)cc1 [Compound 8] | 170 nM | 168 nM |  | 
CCOP(=O)(C#C[C@]1(O)CC[C@H]2[C@@H]3CCC4=CC(=O)CCC4=C3[C@@H](c3ccc(OC)cc3)C[C@@]21C)OCC [Compound 108] | 6.9 nM | 72.2 nM |  | 
C=C1CCO[C@]12CC[C@H]1[C@@H]3CCC4=CC(=O)CCC4=C3[C@@H](c3ccc(P(=O)(c4ccc(Cl)cc4)c4ccc(Cl)cc4)cc3)C[C@@]12C [Compound 39, 19,24-Dinorchola-4,9,20-trien-3-one, 17,23-epoxy-11-[4-[Bis-(4-chloro-phenyl)-phosphinoyl]-phenyl]-, (11β,17α)-(9Cl)] |  |  | 20 nM | 143 nM
CN(C)c1ccc([C@H]2C[C@@]3(C)[C@@H](CC[C@@]3(O)C#CP(=O)(c3ccccc3)c3ccccc3)[C@@H]3CCC4=CC(=O)CCC4=C32)cc1 [Compound 103] |  |  | 1.57 nM | 41.6 nM
C=C1CCO[C@]12CC[C@H]1[C@@H]3CCC4=CC(=O)CCC4=C3[C@@H](c3ccc(P(=O)(OCC)OCC)cc3)C[C@@]12C [Compound 3] | 12 nM | 238 nM |  | 
C=C1CCO[C@]12CC[C@H]1[C@@H]3CCC4=CC(=O)CCC4=C3[C@@H](c3ccc(P(C)(C)=O)cc3)C[C@@]12C [Compound 4] |  |  | 3 nM | 66.2 nM
C/C=C/C[C@]1(O)CC[C@H]2[C@@H]3CCC4=CC(=O)CCC4=C3[C@@H](c3ccc(P(=O)(c4ccccc4)c4ccccc4)cc3)C[C@@]21C [Compound 28] |  |  | 660 nM | 129 nM
C=C1CCO[C@]12CC[C@H]1[C@@H]3CCC4=CC(=O)CCC4=C3[C@@H](c3ccc(P(=O)(OC)OC)cc3)C[C@@]12C [Compound 16] | 8.3 nM | 230 nM |  | 
C=C1CCO[C@]12CC[C@H]1[C@@H]3CCC4=CC(=O)CCC4=C3[C@@H](c3ccc(P(=O)(O)OC)cc3)C[C@@]12C [Compound 17] | > 1000 nM | > 3000 nM |  | 
C=C1CCO[C@]12CC[C@H]1[C@@H]3CCC4=CC(=O)CCC4=C3[C@@H](c3ccc(P4(=O)OCC(C)(C)CO4)cc3)C[C@@]12C [Compound 23, 19,24-Dinorchola-4,9,20-trien-3-one, 17,23-epoxy-11-[4-(5,5-Dimethyl-2-oxo-2λ^5-[1,3,2]dioxaphosphinan-2-yl)-phenyl]-, (11β,17α)-(9Cl)] |  |  | 28.7 nM | 64.3 nM
CCOP(=O)(C#C[C@]1(O)CC[C@H]2[C@@H]3CCC4=CC(=O)CCC4=C3[C@@H](c3ccc(N(C)C)cc3)C[C@@]21C)OCC [Compound 101] | 1.3 nM | > 100 nM |  | 
CC#C[C@]1(O)CC[C@H]2[C@@H]3CCC4=CC(=O)CCC4=C3[C@@H](c3ccc(P(=O)(OCC)OCC)cc3)C[C@@]21C [Compound 26] | 125 nM | 41.5 nM |  | 
C[C@]12C[C@H](c3ccc(P(=O)(OCc4ccccc4)OCc4ccccc4)cc3)C3=C4CCC(=O)C=C4CC[C@H]3[C@@H]1CCC2=O [Compound 35] |  |  | 980 nM | 948 nM
C[C@]12C[C@H](c3ccc(P(C)(C)=O)cc3)C3=C4CCC(=O)C=C4CC[C@H]3[C@@H]1CC[C@@]2(O)CC#N [Compound 6] |  |  | > 1000 nM | > 3000 nM
CCOP(C)(=O)c1ccc([C@H]2C[C@]3(C)C(=O)CC[C@H]3[C@@H]3CCC4=CC(=O)CCC4=C32)cc1 (stereo partly shown) [Compound 21] |  | > 3000 nM |  | 
